Measurements from ChEMBL document CHEMBL5291721, “A preclinical secondary pharmacology resource illuminates target-adverse drug reaction associations of marketed drugs” (Nat Commun, 2023).

Legend:
[1] = biological target: T1, Nuclear receptor subfamily 1 group I member 3 (Homo sapiens, UniProt Q14994); assay type: functional
T1 sequence (Q14994 whole entry): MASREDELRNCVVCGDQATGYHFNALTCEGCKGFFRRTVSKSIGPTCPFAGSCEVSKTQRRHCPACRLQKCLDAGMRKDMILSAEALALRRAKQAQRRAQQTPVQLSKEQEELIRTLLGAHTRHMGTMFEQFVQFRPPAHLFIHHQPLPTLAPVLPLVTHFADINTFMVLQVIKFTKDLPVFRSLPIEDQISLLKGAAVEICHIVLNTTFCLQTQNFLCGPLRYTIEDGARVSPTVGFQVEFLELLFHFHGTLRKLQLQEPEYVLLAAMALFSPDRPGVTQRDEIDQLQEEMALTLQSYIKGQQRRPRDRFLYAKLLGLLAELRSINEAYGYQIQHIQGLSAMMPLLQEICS

[2] = biological target: 5-hydroxytryptamine receptor 5A (Homo sapiens, UniProt P47898)
Sequence of 5-hydroxytryptamine receptor 5A (P47898 whole entry): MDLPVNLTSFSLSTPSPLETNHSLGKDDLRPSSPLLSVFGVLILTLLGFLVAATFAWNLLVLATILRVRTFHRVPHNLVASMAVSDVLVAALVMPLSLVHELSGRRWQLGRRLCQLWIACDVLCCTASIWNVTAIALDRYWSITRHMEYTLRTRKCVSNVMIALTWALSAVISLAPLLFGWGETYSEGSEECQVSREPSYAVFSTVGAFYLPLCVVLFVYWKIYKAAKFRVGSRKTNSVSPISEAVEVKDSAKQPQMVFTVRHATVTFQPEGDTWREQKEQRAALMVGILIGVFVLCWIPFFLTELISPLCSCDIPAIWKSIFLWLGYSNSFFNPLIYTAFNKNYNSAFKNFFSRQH

[3] = biological target: T2, Muscarinic acetylcholine receptor M4 (Homo sapiens, UniProt P08173)
T2 sequence (P08173 whole entry): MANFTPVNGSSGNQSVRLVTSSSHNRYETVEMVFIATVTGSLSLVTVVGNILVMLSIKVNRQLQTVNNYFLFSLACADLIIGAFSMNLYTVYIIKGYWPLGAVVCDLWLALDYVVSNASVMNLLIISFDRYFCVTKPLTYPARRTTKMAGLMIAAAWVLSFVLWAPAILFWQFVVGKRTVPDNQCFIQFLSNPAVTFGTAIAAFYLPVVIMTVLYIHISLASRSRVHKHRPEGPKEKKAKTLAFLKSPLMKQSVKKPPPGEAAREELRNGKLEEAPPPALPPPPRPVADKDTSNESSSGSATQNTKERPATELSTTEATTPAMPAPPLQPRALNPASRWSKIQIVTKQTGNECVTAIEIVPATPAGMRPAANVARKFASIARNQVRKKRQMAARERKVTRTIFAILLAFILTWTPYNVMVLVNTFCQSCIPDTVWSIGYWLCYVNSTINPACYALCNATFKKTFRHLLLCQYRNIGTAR

[4] = biological target: Rod cGMP-specific 3',5'-cyclic phosphodiesterase subunit alpha (Homo sapiens, UniProt P16499); assay type: functional
Sequence of Rod cGMP-specific 3',5'-cyclic phosphodiesterase subunit alpha (P16499 whole entry): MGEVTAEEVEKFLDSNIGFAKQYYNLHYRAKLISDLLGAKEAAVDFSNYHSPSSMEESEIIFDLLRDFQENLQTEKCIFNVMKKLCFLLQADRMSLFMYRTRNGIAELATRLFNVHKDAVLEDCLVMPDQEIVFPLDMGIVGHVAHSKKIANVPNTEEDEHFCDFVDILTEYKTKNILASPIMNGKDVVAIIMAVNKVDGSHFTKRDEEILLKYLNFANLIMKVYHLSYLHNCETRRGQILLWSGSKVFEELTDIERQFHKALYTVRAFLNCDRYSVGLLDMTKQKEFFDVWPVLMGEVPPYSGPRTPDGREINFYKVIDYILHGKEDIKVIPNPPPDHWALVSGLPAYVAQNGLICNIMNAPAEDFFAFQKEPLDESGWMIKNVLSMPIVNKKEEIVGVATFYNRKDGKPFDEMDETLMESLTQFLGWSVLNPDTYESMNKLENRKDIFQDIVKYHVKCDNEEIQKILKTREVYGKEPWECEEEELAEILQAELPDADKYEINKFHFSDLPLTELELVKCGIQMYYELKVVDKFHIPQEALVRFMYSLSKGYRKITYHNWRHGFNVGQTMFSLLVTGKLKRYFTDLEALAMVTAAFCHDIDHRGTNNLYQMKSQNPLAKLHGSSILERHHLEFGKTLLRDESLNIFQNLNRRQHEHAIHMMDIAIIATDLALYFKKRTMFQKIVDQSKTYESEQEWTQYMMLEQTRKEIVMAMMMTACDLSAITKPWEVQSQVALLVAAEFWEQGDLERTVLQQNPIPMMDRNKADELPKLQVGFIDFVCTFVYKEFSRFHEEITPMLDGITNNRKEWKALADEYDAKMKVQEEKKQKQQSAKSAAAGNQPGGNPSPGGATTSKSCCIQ

D(1B) dopamine receptor = D(1B) dopamine receptor (Homo sapiens, UniProt P21918)
Sequence of D(1B) dopamine receptor (P21918 whole entry): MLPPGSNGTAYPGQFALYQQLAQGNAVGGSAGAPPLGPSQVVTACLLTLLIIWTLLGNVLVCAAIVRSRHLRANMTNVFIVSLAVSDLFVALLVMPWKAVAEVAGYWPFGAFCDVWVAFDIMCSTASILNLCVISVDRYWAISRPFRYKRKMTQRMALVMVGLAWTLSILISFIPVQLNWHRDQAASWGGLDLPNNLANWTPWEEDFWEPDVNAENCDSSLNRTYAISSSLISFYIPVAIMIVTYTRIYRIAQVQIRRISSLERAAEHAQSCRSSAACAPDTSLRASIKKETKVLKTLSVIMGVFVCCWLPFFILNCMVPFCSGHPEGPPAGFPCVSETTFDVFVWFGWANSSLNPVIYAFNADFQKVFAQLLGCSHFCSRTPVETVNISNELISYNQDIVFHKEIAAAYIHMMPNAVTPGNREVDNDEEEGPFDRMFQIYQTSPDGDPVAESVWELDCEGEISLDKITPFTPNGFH

[5] = biological target: T3, Prostaglandin G/H synthase 1 (Rattus norvegicus, UniProt Q63921); assay type: functional
T3 sequence (Q63921 whole entry): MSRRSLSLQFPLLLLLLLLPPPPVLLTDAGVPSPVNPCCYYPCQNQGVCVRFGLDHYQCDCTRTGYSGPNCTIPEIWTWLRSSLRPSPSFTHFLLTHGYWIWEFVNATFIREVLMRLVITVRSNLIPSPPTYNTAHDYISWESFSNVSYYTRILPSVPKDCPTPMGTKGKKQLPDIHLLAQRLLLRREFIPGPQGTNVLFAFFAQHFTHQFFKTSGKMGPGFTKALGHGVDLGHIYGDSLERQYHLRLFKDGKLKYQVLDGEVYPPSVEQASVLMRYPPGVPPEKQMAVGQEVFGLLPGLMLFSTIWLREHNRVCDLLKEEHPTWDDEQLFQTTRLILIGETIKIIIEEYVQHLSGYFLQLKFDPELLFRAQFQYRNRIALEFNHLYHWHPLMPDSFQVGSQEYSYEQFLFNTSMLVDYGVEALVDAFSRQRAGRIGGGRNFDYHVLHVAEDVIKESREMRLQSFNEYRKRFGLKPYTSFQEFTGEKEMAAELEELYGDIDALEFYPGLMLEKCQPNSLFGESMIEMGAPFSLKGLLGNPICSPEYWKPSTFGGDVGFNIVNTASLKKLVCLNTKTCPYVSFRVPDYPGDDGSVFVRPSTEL

[6] = biological target: Epidermal growth factor receptor (Homo sapiens, UniProt P00533); assay type: functional
Sequence of Epidermal growth factor receptor (P00533 whole entry): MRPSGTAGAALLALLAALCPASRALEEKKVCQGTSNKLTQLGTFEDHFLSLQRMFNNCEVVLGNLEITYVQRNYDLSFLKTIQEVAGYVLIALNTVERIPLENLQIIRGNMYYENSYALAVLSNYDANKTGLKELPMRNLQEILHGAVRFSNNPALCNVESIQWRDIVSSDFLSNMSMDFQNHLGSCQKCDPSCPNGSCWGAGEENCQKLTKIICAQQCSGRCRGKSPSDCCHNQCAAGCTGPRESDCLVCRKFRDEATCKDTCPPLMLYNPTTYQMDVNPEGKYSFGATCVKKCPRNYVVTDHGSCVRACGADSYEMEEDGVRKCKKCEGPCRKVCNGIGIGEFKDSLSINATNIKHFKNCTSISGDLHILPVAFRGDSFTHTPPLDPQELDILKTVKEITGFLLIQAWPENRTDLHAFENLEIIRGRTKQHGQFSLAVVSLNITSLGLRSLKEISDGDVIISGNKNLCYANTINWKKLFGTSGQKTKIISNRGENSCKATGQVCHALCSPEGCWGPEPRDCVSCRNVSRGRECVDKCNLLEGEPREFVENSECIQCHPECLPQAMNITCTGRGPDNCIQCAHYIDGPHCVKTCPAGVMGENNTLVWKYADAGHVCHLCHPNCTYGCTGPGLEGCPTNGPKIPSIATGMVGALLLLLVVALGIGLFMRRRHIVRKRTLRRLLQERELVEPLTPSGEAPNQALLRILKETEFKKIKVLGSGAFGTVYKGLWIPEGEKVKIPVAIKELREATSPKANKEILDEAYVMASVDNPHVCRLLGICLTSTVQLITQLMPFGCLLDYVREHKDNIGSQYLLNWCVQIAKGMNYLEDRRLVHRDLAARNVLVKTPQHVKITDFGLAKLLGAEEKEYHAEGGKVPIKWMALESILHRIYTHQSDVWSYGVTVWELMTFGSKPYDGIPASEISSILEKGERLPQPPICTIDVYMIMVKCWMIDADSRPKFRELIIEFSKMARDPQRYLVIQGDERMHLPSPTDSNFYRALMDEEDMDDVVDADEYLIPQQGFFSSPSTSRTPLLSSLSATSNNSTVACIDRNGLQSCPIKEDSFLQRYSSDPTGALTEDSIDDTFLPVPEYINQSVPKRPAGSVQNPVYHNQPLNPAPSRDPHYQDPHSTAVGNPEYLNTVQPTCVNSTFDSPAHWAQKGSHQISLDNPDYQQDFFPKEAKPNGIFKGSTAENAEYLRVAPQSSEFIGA

[7] = biological target: T4, Retinoic acid receptor alpha (Homo sapiens, UniProt P10276); assay type: functional, cell-based
T4 sequence (P10276 whole entry): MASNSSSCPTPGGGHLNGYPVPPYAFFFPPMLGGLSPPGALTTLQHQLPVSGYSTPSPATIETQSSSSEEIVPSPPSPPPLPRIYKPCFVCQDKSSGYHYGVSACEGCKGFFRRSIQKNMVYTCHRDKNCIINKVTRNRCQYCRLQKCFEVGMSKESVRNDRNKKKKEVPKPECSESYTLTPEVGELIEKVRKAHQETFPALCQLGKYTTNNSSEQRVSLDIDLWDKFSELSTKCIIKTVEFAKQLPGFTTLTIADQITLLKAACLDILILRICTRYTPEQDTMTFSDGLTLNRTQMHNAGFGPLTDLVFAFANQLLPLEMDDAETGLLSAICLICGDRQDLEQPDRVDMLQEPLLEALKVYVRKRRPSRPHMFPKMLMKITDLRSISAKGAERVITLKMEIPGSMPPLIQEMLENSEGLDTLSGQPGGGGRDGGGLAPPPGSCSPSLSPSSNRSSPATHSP

[8] = biological target: T5, Retinoic acid receptor beta (Homo sapiens, UniProt P10826); assay type: functional, cell-based
T5 sequence (P10826 whole entry): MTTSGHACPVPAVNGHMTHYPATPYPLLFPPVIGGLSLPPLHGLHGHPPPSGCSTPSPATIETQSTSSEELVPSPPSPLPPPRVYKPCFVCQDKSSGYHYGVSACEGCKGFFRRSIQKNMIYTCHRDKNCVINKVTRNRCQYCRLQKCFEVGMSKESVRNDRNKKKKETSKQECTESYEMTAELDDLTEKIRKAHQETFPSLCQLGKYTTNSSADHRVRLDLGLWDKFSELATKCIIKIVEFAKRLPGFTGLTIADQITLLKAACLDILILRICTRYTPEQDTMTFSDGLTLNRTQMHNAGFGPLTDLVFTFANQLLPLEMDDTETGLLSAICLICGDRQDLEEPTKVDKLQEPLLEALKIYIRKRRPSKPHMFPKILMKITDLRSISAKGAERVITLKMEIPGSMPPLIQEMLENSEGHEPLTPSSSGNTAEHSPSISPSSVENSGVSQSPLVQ
Further: assay procedure not described here.

CO[C@H]1/C=C/O[C@@]2(C)Oc3c(C)c(O)c4c(O)c(c(/C=N/N5CCN(C)CC5)c(O)c4c3C2=O)NC(=O)/C(C)=C\C=C\[C@H](C)[C@H](O)[C@@H](C)[C@@H](O)[C@@H](C)[C@H](OC(C)=O)[C@@H]1C [RIFAMPIN]
AC50 [1]: > 30 µM

N[C@@H](CC(=O)N1CCn2c(nnc2C(F)(F)F)C1)Cc1cc(F)c(F)cc1F [SITAGLIPTIN]
AC50 [2]: > 10 µM
AC50 [3]: > 10 µM
AC50 [4]: > 10 µM
AC50 (D(1B) dopamine receptor): > 10 µM

CC(C)N(CCC(C(N)=O)(c1ccccc1)c1ccccn1)C(C)C (configuration not stated) [DISOPYRAMIDE]
AC50 [5]: 29.7 µM

C[C@H](CCC(=O)O)[C@H]1CC[C@H]2[C@@H]3[C@@H](O)C[C@@H]4C[C@H](O)CC[C@]4(C)[C@H]3CC[C@]12C [URSODIOL]
AC50 [6]: > 30 µM

C=CC[C@@H]1/C=C(\C)C[C@H](C)C[C@H](OC)[C@H]2O[C@@](O)(C(=O)C(=O)N3CCCC[C@H]3C(=O)O[C@H](/C(C)=C/[C@@H]3CC[C@@H](O)[C@H](OC)C3)[C@H](C)[C@@H](O)CC1=O)[C@H](C)C[C@@H]2OC [TACROLIMUS ANHYDROUS]
AC50 [6]: > 30 µM

COc1ccccc1Oc1c(NS(=O)(=O)c2ccc(C(C)(C)C)cc2)nc(-c2ncccn2)nc1OCCO [BOSENTAN]
AC50 [1]: 2.1 µM

Cc1onc(-c2ccccc2)c1-c1ccc(S(N)(=O)=O)cc1 [VALDECOXIB]
AC50 [2]: > 10 µM
AC50 [3]: > 10 µM
AC50 [4]: > 10 µM
AC50 [5]: > 30 µM
AC50 (D(1B) dopamine receptor): > 10 µM

CCCN(CCC)C(=O)Cc1c(-c2ccc(Cl)cc2)nc2ccc(Cl)cn12 [ALPIDEM]
AC50 [3]: > 10 µM

CCN1CCN(Cc2ccc(Nc3ncc(F)c(-c4cc(F)c5nc(C)n(C(C)C)c5c4)n3)nc2)CC1 [ABEMACICLIB]
AC50 [6]: 9.5 µM

CCCC(CCC)C(=O)O [VALPROIC ACID]
AC50 [3]: > 10 µM

CC(C(=O)O)c1ccc2c(c1)[nH]c1ccc(Cl)cc12 (configuration not stated) [CARPROFEN]
AC50 [1]: > 30 µM
AC50 [7]: > 30 µM
AC50 [8]: > 30 µM

COc1ccc(CC2c3cc(OC)c(OC)cc3CC[N+]2(C)CCC(=O)OCCCCCOC(=O)CC[N+]2(C)CCc3cc(OC)c(OC)cc3C2Cc2ccc(OC)c(OC)c2)cc1OC (configuration not stated)
AC50 [5]: 18.9 µM

COc1ccccc1OCCNCC(O)COc1cccc2[nH]c3ccccc3c12 (configuration not stated) [CARVEDILOL]
AC50 [5]: > 30 µM

CCN(CC)CCNC(=O)c1c(C)[nH]c(/C=C2\C(=O)Nc3ccc(F)cc32)c1C [SUNITINIB]
AC50 [2]: 10 µM
AC50 [1]: > 30 µM
AC50 [7]: > 3 µM
AC50 [3]: > 10 µM
AC50 [8]: > 3 µM
